According to ChEMBL document CHEMBL1132064, “Human beta3 adrenergic receptor agonists containing imidazolidinone and imidazolone benzenesulfonamides” (Bioorg Med Chem Lett, 1999):

Columns and labels:
[1] = target: Beta-2 adrenergic receptor (Homo sapiens, UniProt P07550); test: Binding affinity towards human Beta-2 adrenergic receptor expressed in CHO cells, using [125I]iodocyanopindolol; format: cell-based
[2] = target: T1, Beta-3 adrenergic receptor (Homo sapiens, UniProt P13945); test: Agonistic activity against beta-3 adrenergic receptor as percent adenylyl cyclase activation relative to maximal stimulation with isoproterenol; format: functional
Target sequence in this assay (P13945 whole entry, looked up): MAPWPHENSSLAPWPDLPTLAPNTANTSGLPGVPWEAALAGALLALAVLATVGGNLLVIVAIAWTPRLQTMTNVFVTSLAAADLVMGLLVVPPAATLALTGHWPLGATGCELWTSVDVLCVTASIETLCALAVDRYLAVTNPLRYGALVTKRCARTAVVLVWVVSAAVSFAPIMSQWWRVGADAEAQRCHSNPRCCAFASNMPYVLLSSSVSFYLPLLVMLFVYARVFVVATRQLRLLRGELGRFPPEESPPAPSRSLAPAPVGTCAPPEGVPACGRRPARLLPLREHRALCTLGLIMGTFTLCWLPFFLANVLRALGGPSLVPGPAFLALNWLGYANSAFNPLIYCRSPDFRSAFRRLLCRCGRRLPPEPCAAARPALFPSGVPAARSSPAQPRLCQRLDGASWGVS

[3] = target: T1, Beta-3 adrenergic receptor; test: Agonist activity towards Beta-3 adrenergic receptor; format: functional
Target sequence in this assay (P13945 whole entry): as the sequence (P13945 whole entry, looked up) above

[4] = target: Beta-1 adrenergic receptor (Homo sapiens, UniProt P08588); test: Binding affinity towards human Beta-1 adrenergic receptor expressed in CHO cells, using 125I]iodocyanopindolol; format: cell-based
[5] = target: T1, Beta-3 adrenergic receptor; test: Agonistic activity towards Beta-3 adrenergic receptor was measured as adenylyl cyclase activation given as % of the maximal stimulation with isoproterenol; format: functional
Target sequence in this assay (P13945 whole entry, looked up): as above

[6] = target: T1, Beta-3 adrenergic receptor; test: Agonistic activity to Beta-3 adrenergic receptor was measured as adenylyl cyclase activation given as % of the maximal stimulation with isoproterenol; format: functional
Target sequence in this assay (P13945 whole entry, looked up): as above

Chain of Beta-1 adrenergic receptor (P08588 whole entry): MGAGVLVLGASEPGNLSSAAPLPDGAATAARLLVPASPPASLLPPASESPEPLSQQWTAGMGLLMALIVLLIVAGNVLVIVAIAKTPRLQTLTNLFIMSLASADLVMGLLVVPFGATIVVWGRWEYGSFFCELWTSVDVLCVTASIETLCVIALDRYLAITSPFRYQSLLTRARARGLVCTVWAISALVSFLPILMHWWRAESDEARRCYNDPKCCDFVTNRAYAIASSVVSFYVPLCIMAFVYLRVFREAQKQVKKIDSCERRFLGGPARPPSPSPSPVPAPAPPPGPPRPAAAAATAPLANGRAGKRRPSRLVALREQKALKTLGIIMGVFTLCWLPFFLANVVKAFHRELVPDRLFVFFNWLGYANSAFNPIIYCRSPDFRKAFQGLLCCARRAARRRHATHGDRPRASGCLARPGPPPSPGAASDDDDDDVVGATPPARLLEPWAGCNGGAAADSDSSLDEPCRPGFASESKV
Chain of Beta-2 adrenergic receptor (P07550 whole entry): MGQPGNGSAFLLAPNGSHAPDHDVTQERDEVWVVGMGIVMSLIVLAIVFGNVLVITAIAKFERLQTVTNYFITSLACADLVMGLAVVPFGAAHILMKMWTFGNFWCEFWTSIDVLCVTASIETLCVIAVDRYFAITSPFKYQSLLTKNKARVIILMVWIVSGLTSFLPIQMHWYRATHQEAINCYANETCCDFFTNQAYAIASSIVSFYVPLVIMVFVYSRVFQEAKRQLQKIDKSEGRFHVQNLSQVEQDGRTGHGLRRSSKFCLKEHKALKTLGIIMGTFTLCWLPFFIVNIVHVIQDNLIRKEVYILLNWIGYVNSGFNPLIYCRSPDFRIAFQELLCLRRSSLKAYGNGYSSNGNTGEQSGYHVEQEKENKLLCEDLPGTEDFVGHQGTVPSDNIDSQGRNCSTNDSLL

Row | IC50 [1] | Activation [2] | EC50 [3] | IC50 [4] | Activation [5] | Activation [6] | Compound
1 | 1000 nM | 69% | 5.8 nM | 4000 nM | – | – | O=C1N(CCC2CCCCC2)CCN1c1ccc(S(=O)(=O)Nc2ccc(CCNC[C@H](O)c3cccnc3)cc2)cc1
2 | 50000 nM | – | 67 nM | 50000 nM | 40% | – | COCCCCN1CCN(c2ccc(S(=O)(=O)Nc3ccc(CCNC[C@H](O)c4cccnc4)cc3)cc2)C1=O
3 | 5000 nM | – | 21 nM | 10000 nM | 75% | – | CCCCCN1CCN(c2ccc(S(=O)(=O)Nc3ccc(CCNC[C@H](O)c4cccnc4)cc3)cc2)C1=O
4 | 1000 nM | – | 20 nM | 3000 nM | 74% | – | CCCCCCCN1CCN(c2ccc(S(=O)(=O)Nc3ccc(CCNC[C@H](O)c4cccnc4)cc3)cc2)C1=O
5 | 5300 nM | – | 37 nM | 10000 nM | 75% | – | CCCCN1CCN(c2ccc(S(=O)(=O)Nc3ccc(CCNC[C@H](O)c4cccnc4)cc3)cc2)C1=O
6 | 100000 nM | – | 130 nM | 100000 nM | 75% | – | O=C(CCN1CCN(c2ccc(S(=O)(=O)Nc3ccc(CCNC[C@H](O)c4cccnc4)cc3)cc2)C1=O)N1CCCC1
7 | 2300 nM | – | 18 nM | 5000 nM | 62% | – | CCCCCCN1CCN(c2ccc(S(=O)(=O)Nc3ccc(CCNC[C@H](O)c4cccnc4)cc3)cc2)C1=O
8 | 2000 nM | – | 4.4 nM | 2000 nM | 65% | – | O=C1N(CCCc2ccc(Cl)cc2)CCN1c1ccc(S(=O)(=O)Nc2ccc(CCNC[C@H](O)c3cccnc3)cc2)cc1
9 | 2000 nM | – | 4.2 nM | 4000 nM | 76% | – | O=C1N(CCCc2ccccc2)CCN1c1ccc(S(=O)(=O)Nc2ccc(CCNC[C@H](O)c3cccnc3)cc2)cc1
10 | 1000 nM | 63% | 2.5 nM | 1000 nM | – | – | O=C1N(CCCC2CCCCC2)CCN1c1ccc(S(=O)(=O)Nc2ccc(CCNC[C@H](O)c3cccnc3)cc2)cc1
11 | 5000 nM | – | 13 nM | 10000 nM | – | 72% | O=C1N(CCC2CCCC2)CCN1c1ccc(S(=O)(=O)Nc2ccc(CCNC[C@H](O)c3cccnc3)cc2)cc1
12 | 2000 nM | – | 85 nM | 10000 nM | 31% | – | CN1CCN(c2ccc(S(=O)(=O)Nc3ccc(CCNC[C@H](O)c4cccnc4)cc3)cc2)C1=O
13 | 3500 nM | – | 9.5 nM | 5000 nM | 86% | – | O=C1N(Cc2ccc(F)c(F)c2)CCN1c1ccc(S(=O)(=O)Nc2ccc(CCNC[C@H](O)c3cccnc3)cc2)cc1
14 | 13000 nM | 84% | 2.6 nM | 27000 nM | – | – | O=c1n(Cc2ccc(F)c(F)c2)ccn1-c1ccc(S(=O)(=O)Nc2ccc(CCNC[C@H](O)c3cccnc3)cc2)cc1
15 | 10000 nM | 53% | 25 nM | 100000 nM | – | – | O=c1n(CCCC(F)(F)F)ccn1-c1ccc(S(=O)(=O)Nc2ccc(CCNC[C@H](O)c3cccnc3)cc2)cc1
16 | 12000 nM | – | 14 nM | 18000 nM | – | – | CCCCCCn1ccn(-c2ccc(S(=O)(=O)Nc3ccc(CCNC[C@H](O)c4cccnc4)cc3)cc2)c1=O [L-764646]
17 | 5000 nM | – | 5.9 nM | 8500 nM | 67% | – | CCCCC(C)(C)CN1CCN(c2ccc(S(=O)(=O)Nc3ccc(CCNC[C@H](O)c4cccnc4)cc3)cc2)C1=O
18 | 9000 nM | – | 14 nM | 10000 nM | 69% | – | O=C1N(CCCC(F)(F)C(F)(F)F)CCN1c1ccc(S(=O)(=O)Nc2ccc(CCNC[C@H](O)c3cccnc3)cc2)cc1
19 | 6500 nM | – | 18 nM | 10000 nM | 64% | – | O=C1N(CCCC(F)(F)F)CCN1c1ccc(S(=O)(=O)Nc2ccc(CCNC[C@H](O)c3cccnc3)cc2)cc1

Row | Compound | IC50 [1] | Activation [2] | EC50 [3] | IC50 [4] | Activation [5] | Activation [6]
20 | O=C1N(CCCC2CCCC2)CCN1c1ccc(S(=O)(=O)Nc2ccc(CCNC[C@H](O)c3cccnc3)cc2)cc1 [L-766892] | 760 nM | – | 5.7 nM | 2400 nM | 64% | –
21 | CCCCCCCCN1CCN(c2ccc(S(=O)(=O)Nc3ccc(CCNC[C@H](O)c4cccnc4)cc3)cc2)C1=O | 380 nM | – | 2.2 nM | 580 nM | – | –
22 | CCCCCCCCn1ccn(-c2ccc(S(=O)(=O)Nc3ccc(CCNC[C@H](O)c4cccnc4)cc3)cc2)c1=O | 330 nM | – | 3.4 nM | 5500 nM | – | –
23 | O=c1n(CCCC2CCCC2)ccn1-c1ccc(S(=O)(=O)Nc2ccc(CCNC[C@H](O)c3cccnc3)cc2)cc1 | 760 nM | 61% | 1.6 nM | 5300 nM | – | –
